Drawing on PubChem BioAssay AID2305 (GlaxoSmithKline (GSK), 2010), this text covers IC50 for 35 molecules.

The subject of the experiment is P. falciparum 3D7 growth, pLDH absorbance. Kind of experiment: P. falciparum 3D7 growth inhibition, dose response, strain 3D7 (AID 2305).

Molecule `O=C(Nc1ccc(Cl)cc1C(=O)Nc1cccc(F)c1)c1ccc([N+](=O)[O-])cc1` displayed an IC50 of 370 nM.

On to `Nc1nc(Nc2cccc(Cl)c2)ncc1C(=O)NCc1ccncc1`, for which the half-maximal inhibitory concentration (IC50) came to 830 nM.

The molecule `O=C(Nc1ccc(-c2oc(C(=O)NCCc3cccc(Cl)c3)cc2-c2ccncc2)cc1)Nc1cccc(Cl)c1` had an IC50 of 720 nM.

Turning to `CC(=O)Nc1ccc(Nc2ncc([N+](=O)[O-])c(Nc3ccccc3C(N)=O)n2)cc1`, the concentration for half-maximal inhibition (IC50) stood at 370 nM.

The molecule `CN(C)c1ccc(CN2CCC(CNC(=O)c3cc(-c4cccc(F)c4)cs3)C2)cc1` (stereo not given) gave an IC50 of 1020 nM.

Molecule `CN(C)C(=O)CC(=O)NCc1c(Cl)cccc1Cl` gave an IC50 of 200 nM.

The molecule `CCN(Cc1ccc(-c2ccc(C(F)(F)F)cc2)cc1)C(=O)Cn1c(SCc2cccc(F)c2F)cc(=O)c2cc(CN3CCCCC3)ccc21` gave an IC50 of 800 nM.

`COc1ccc(CN2CCC(NCc3cccc([N+](=O)[O-])c3)CC2)cc1` came in with an IC50 of 910 nM.

Molecule `Cc1ccc(Nc2nccc(Nc3ccc4c(C)[nH]nc4c3)n2)cc1F` displayed a half-inhibitory concentration (IC50) of 780 nM.

Take `Cc1ccc(-n2c(C)nc3c(Nc4ccc(-c5ccncc5)cc4)ncnc32)c(C)c1`: the IC50 came out at 100 nM.

As for `Fc1cccc2sc(Nc3nc(-c4ccccn4)cs3)nc12`, the IC50 worked out at 910 nM.

Consider `O=C(/C=C/c1ccc(Cl)c(Cl)c1)NCCCCCN1CCCN(C(=O)Nc2cccc(C(F)(F)F)c2)CC1`, for which the IC50 was 870 nM.

In turn, `CCNc1cc(C(=O)N[C@@H](Cc2ccccc2)[C@H](O)CNC2CCC(F)(F)CC2)c(F)c(N2CCCCS2(=O)=O)c1` returned an IC50 of 210 nM.

As for `CCCCOc1cc(CNCCCCCCNCc2cc(OCCCC)cc3ccccc23)c2ccccc2c1`, the half-inhibitory concentration (IC50) came to 740 nM.

Turning to `CC(Cc1ccc(Cl)cc1)Nc1nc(NC2CCCC2)nc(N2CCC(C#N)(c3ccccc3)CC2)n1` (stereo not given), the IC50 amounted to 710 nM.

`c1ccc(CN2CCC(NCc3ccccc3-c3ccc(CNCc4ccc5c(c4)OCO5)cc3)CC2)cc1` yielded an IC50 of 330 nM.

The molecule `Cc1cc(NC(=O)c2ccc(S(=O)(=O)N(Cc3ccccc3)C(C)C)cc2)no1` displayed a half-inhibitory concentration (IC50) of 850 nM.

`CCCCCCc1ncc(-c2cc3cc(O)c(-c4ccccc4)cc3oc2=O)s1` yielded a 50% inhibitory concentration (IC50) of 1240 nM.

Consider `O=c1c2ccccc2nc(C=Cc2ccc([N+](=O)[O-])cc2)n1-c1ccccn1`, for which the IC50 is 380 nM.

On to `COc1cc(F)c2ncc(Cl)c([C@@H](O)CN3CCC(NCc4cc5c(cn4)OCCO5)CC3)c2c1`, for which the IC50 was determined as 100 nM.

For `CCC1(C)CC(CCNCc2ccccc2O)(c2ccccc2OC)CCO1` (stereo not given), the IC50 is 720 nM.

On to `CCC(C(=O)Nc1ccccc1)n1nc(-c2ccc(C)c(S(=O)(=O)N3CCCCC3)c2)ccc1=O` (stereo not given), for which the IC50 was 1090 nM.

`COc1ccc(-c2nc3c(N)nc(N)nc3nc2C(C)C)cc1`: the concentration for half-maximal inhibition (IC50) amounted to 190 nM.

For `O=C(NCCCCN1CCC(c2ccc3ccccc3c2O)CC1)c1ccc(NC(=O)c2ccc(Cl)cc2)cc1`, the IC50 amounted to 1010 nM.

`Cc1ccc(CCC(C)NCC(O)c2cccc(C(F)(F)F)c2)cc1` (stereo not given) returned a 50% inhibitory concentration (IC50) of 560 nM.

In turn, `Cc1cccc2[nH]c(-c3cccc(-c4ccc(NC(=O)C5CCN(C)CC5)cc4)c3)nc12` gave an IC50 of 830 nM.

For the molecule `CCc1nc2c(cnn2CC)c(NC2CCOCC2)c1CNC(=O)N1CCOCC1`, the IC50 came to 890 nM.

Consider `COc1ccc(Nc2nc(N3CCCC3)c3ccccc3n2)cc1`, for which the IC50 is 750 nM.

`CC[C@H](C)CNC(=O)c1ccnc(-c2ccc(CNC3Cc4ccccc4C3)cc2)c1` yielded a concentration for half-maximal inhibition (IC50) of 570 nM.

Consider `COc1cc(Cc2cnc(N)nc2N)cc(OC)c1OCCNC(=O)[C@@H](N)CCC(=O)O`, for which the IC50 was determined as 840 nM.

`Cc1c(-c2cccc(CNCCc3ccc(Cl)cc3)c2)cnc(N)c1C` had an IC50 of 1040 nM.

Turning to `CNCCCCCCOc1ccc(CC(C)NCC(O)c2cccc(C(F)(F)F)c2)cc1` (stereo not given), the IC50 was 880 nM.

As to `CNCCNCc1ccc(-c2cccc(-c3nc4ccc(F)cc4[nH]3)c2)cc1`, the half-inhibitory concentration (IC50) turned out to be 1130 nM.

Consider `OC[C@H](Nc1nc(C(Oc2ccccc2)c2ccccc2)nc2[nH]ncc12)c1ccccc1` (stereo not given in full), for which the concentration for half-maximal inhibition (IC50) stood at 850 nM.

On to `O=C(/C=C/c1ccc(I)cc1)NCCCCCN1CCC(c2c[nH]c3ccc(O)cc23)CC1`, for which the IC50 was determined as 770 nM.

Usually IC50 stands for the midpoint of a concentration-inhibition curve. Read a high IC50 as a need for much substance.
